Article PMC11266668, “Unraveling the mechanism of small molecule induced activation of Staphylococcus aureus signal peptidase IB” (Communications Biology, 2024)
In brackets after ≈: the same amount, converted by molar mass. Several values for one entry are separate records, joined by “and”; a condition that tells them apart may be missing. Equal entries are not always repeated.

Tests used:
[1] = molecular target: T1, wt SpsB (Staphylococcus aureus, UniProt P0A070); assay: FRET-based signal peptidase assay with membrane-bound SpsB (wt); assay type: biochemical, S. aureus; conditions: for wt A4 (normalized activity): replicates
T1 construct: recombinantly expressed full-length S. aureus SpsB (wt) or mutants; made in house; host or cells: E. coli BL21(DE3)pLysS, membrane fraction
Method: (§1) For preparation of E. coli membrane fractions harboring overexpressed S. aureus SpsB, E. coli BL21(DE3) pLysS cells harboring pET-55-DEST-fl-SpsB or respective mutant plasmids (F67A, Y75A, F158A, Q165A, F67A-Y75A, F67A-F158A, Y75A-F158A, F67A-Y75A-F158A) were grown in LB medium (supplemented with Ampicillin (100 µg/mL) and Chloramphenicol (34 µg/mL)) at 37°C (200 rpm) to OD600 ≈ 0.6 and protein overexpression was induced by the addition of isopropyl-1-thio-β-galactopyranoside (IPTG, 0.5 mM). After incubation (22 °C, 200 rpm, 3 h), cells were harvested by centrifugation (6000 × g, 4 °C, 10 min) and subsequently washed with PBS. The cell pellet was resuspended in 5 mL Tris-HCl buffer (50 mM, pH = 7.5) and lysed using a bead beater homogenizer (3 cycles: 5500 rpm for 45 s, 30 s cooling; Precellys Ceramic Kit CK01L, 7.0 mL tubes; Precellys 24 Homogenizer, Bertin Technologies). The lysate was centrifuged (12,000 × g, 4 °C, 10 min) to remove intact cells and debris. Membranes were collected from supernatant (39,000 × g, 4 °C, 75 min) and resuspended in ice-cold sodium phosphate buffer (50 mM, pH 7.5). Protein concentration was measured using the Pierce BCA Protein assay kit (Thermo Fisher Scientific, Pierce Biotechnology) and snap-frozen aliquots were stored at −80 °C.
(§2) Signal cleavage activities of recombinantly expressed full-length S. aureus SpsB (wt) or mutants (F67A, Y75A, F158A, Q165A, F67A-Y75A, F67A-F158A, Y75A-F158A, F67A-Y75A-F158A) in E. coli membranes were measured using a Förster Resonance Energy Transfer (FRET) assay as previously described[20],[36].
A synthetic peptide substrate based on SceD modified by 4-(4- dimethylaminophenylazo)benzoic (DABCYL) acid and 5-((2-aminoethyl)amino)-1- naphthalenesulfonic acid (EDANS) was used (DABCYL-[…]-EDANS, AnaSpec) as FRET substrate. Assays were performed with overexpressed wildtype SpsB (wt) or mutant (F67A, Y75A, F158A, Q165A, F67A-Y75A, F67A-F158A, Y75A-F158A, F67A-Y75A-F158A) in E. coli membranes. As controls for background activity, respective E. coli membranes without IPTG induction were used (see Experimental procedure “Preparation of E. coli membrane (control) fractions. Membranes containing recombinant wildtype SpsB or mutant (50 µg/mL membrane concentration, 100 µL/well final volume, sodium phosphate buffer, 50 mM, pH 7.5, addition of detergent if indicated; final concentrations in buffer: 0.1% CHAPS, 0.001% NP-40 or 0.1% Tween) were pre-treated with PK150, Arylomycin A4 or DMSO as a control (final concentration 1%) at 37 °C for 5 min. After addition of FRET substrate (10 µM final substrate concentration; final DMF concentration from substrate stock 1%), fluorescence turnover was monitored by an Infinite™ M Nano Tecan 200Pro reader (340 nm excitation and 510 nm emission wavelengths, fluorescence top reading mode) at 37 °C for at least 2 h.
The assay was performed in technical triplicates for at least three biologically independent experiments (n ≥ 3). Significance of cleavage activity was determined via a two-tailed Students t-test for comparison of membranes treated with DMSO to PK150.

[2] = molecular target: T2, SpsB F158A mutant (Staphylococcus aureus, UniProt P0A070, F158A); assay: FRET-based signal peptidase assay with membrane-bound SpsB, F158A mutant; assay type: biochemical, S. aureus; conditions: for F158A A4 (normalized activity): replicates
T2 construct: recombinantly expressed full-length S. aureus SpsB (wt) or mutants; made in house; host or cells: E. coli BL21(DE3)pLysS, membrane fraction
T2 sequence (P0A070 1-191 F158A): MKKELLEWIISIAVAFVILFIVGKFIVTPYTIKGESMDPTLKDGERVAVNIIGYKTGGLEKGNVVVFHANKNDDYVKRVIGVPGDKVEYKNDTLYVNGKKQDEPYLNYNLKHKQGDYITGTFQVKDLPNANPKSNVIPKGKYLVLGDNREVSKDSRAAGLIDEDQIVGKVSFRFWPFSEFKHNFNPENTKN
Method: Cloning of full-length SpsB (fl-SpsB) was performed using the Invitrogen Gateway Technology in previous works by Le et al.. fl-SpsB was cloned into the destination vector pET-55-DEST (Novagen) and transformed into chemically competent E. coli BL21(DE3)pLysS cells (Promega) to prevent leaky protein overexpression. Plasmid DNA of wildtype SpsB pET-55-DEST-fl-SpsB was purified using a plasmid Miniprep Kit (peqGOLD Plasmid Miniprep Kit II, VWR Peqlab) according to the manufacturer’s instructions and used as template for all single point mutations (F67A, Y75A, F158A, Q165A). For double (F67A-Y75A, F67A-F158A, Y75A-F158A) or triple point (F67A-Y75A-F158A) mutations, the respective pET-55-DEST-fl-SpsB single point mutation or double point mutation plasmids were isolated and used as template for site-directed mutagenesis. Point mutation primers (Sigma) were designed based on the pET-55-dest-fl-SpsB construct according to the manufacturer’s instructions (Agilent). Primer sequences and order of point mutation introduction for all point mutations are listed in Supplementary Table S4. QuikChange site-directed mutagenesis PCR reactions were performed using either Phusion High-Fidelity DNA Polymerase (New England BioLabs, mutations: F67A, Q165A) or Q5 High-Fidelity DNA Polymerase (New England BioLabs, mutations: Y75A, F158A, F67A-Y75A, F67A-F158A, Y75A-F158A, F67A-Y75A-F158A) using the cycle listed below (Supplementary Table S5). The PCR mixture contained 10 µL GC buffer (NEB), 1 µL dNTP mix (10 mM), 1 µL forward primer (10 µM), 1 µL reverse primer (10 µM), 1 µL plasmid template (25 – 50 ng), 1.5 µL DMSO and 1 µL Phusion or Q5 High Fidelity DNA polymerase (NEB) and 33 µL ddH2O.
as §1, §2
A synthetic peptide substrate based on SceD modified by 4-(4- dimethylaminophenylazo)benzoic (DABCYL) acid and 5-((2-aminoethyl)amino)-1- naphthalenesulfonic acid (EDANS) was used (DABCYL-[…]-EDANS, AnaSpec) as FRET substrate. Assays were performed with overexpressed wildtype SpsB (wt) or mutant (F67A, Y75A, F158A, Q165A, F67A-Y75A, F67A-F158A, Y75A-F158A, F67A-Y75A-F158A) in E. coli membranes. […]

[3] = system: S. aureus NCTC 8325; design: method as in Le et al., Nat Chem. 2020; conditions: ref Le et al., Nat Chem. 2020; cited from earlier work

## CCC(C)CCCCCCCCC(=O)N(C)[C@H](CO)C(=O)N[C@H](C)C(=O)NCC(=O)N(C)C1C(=O)N[C@@H](C)C(=O)NC(C(=O)O)Cc2ccc(O)c(c2)-c2cc1ccc2O (stereo partly drawn) [Arylomycin A4]
[1]; >= 6.25 µM A4, wt
  activity observed (comment): no activity observed >= 6.25 µM A4
[1]; A4 0.195uM
  wt A4 (normalized activity): 45.9128 and 47.6989 and 41.1571 and 57.7909
[1]; A4 0.39uM
  wt A4 (normalized activity): 29.005 and 27.5696 and 32.0075 and 46.11
[1]; A4 0.78uM
  wt A4 (normalized activity): 22.2989 and 17.0381 and 18.021 and 27.9093
[1]; A4 1.5625uM
  wt A4 (normalized activity): 12.8972 and 7.451 and 11.5505 and 15.4289
[1]; A4 3.125uM
  wt A4 (normalized activity): 11.0377 and 3.5503 and 8.876 and 8.105
[1]; A4 0,006uM
  wt A4 (normalized activity): 95.8032 and 76.7916 and 108.843
[1]; A4 6.25uM
  wt A4 (normalized activity): 6.541 and -3.189 and 3.474 and 4.294
[1]; A4 0,012uM
  wt A4 (normalized activity): 85.1742 and 80.5391 and 106.049
[1]; A4 12.5uM
  wt A4 (normalized activity): 6.292
[1]; A4 0,024uM
  wt A4 (normalized activity): 82.0951 and 107.605 and 99.2001
[1]; A4 25uM
  wt A4 (normalized activity): 5.273
[1]; A4 0,048uM
  wt A4 (normalized activity): 88.089 and 72.2661 and 88.1109
[1]; A4 50uM
  wt A4 (normalized activity): 0
[1]; A4 0,097uM
  wt A4 (normalized activity): 68.2227 and 67.6529 and 63.3355 and 86.9713
[1]; wt
  IC50: 210 nM
[2]; >= 6.25 µM A4, F158A
  activity observed (comment): no activity observed >= 6.25 µM A4
[2]; A4 0,39µM
  F158A A4 (normalized activity): 32.4463 and 49.9171 and 42.4421 and 52.4288
[2]; A4 0,78µM
  F158A A4 (normalized activity): 16.172 and 26.1385 and 26.2791 and 38.6178
[2]; A4 0,006µM
  F158A A4 (normalized activity): 114.109 and 96.9597 and 113.52
[2]; A4 0,012µM
  F158A A4 (normalized activity): 105.97 and 95.3486 and 96.5076
[2]; A4 0,024µM
  F158A A4 (normalized activity): 106.863 and 85.3442 and 101.455
[2]; A4 25uM
  F158A A4 (normalized activity): 1.625
[2]; A4 0,049µM
  F158A A4 (normalized activity): 49.0532 and 88.7486 and 79.7833 and 90.4487
[2]; A4 50uM
  F158A A4 (normalized activity): 0
[2]; A4 0,097µM
  F158A A4 (normalized activity): 43.0655 and 77.8288 and 72.5853 and 85.1042
[2]; A4 0,195µM
  F158A A4 (normalized activity): 35.3889 and 69.8941 and 59.8004 and 66.9013
[2]; A4 3,125µM
  F158A A4 (normalized activity): 9.135 and 8.856 and 10.0772 and 7.1542
[2]; A4 6,25µM
  F158A A4 (normalized activity): 5.328 and 0 (3×)
[2]; A4 12,5uM
  F158A A4 (normalized activity): 3.344
[2]; A4 1,5626µM
  F158A A4 (normalized activity): 13.3342 and 20.0153 and 23.1869 and 21.923
[2]; F158A mutant
  IC50: 229 nM

## C#CCCC1(CCOC(=O)c2ccc(NC(=O)Nc3ccc(Cl)c(C(F)(F)F)c3)cc2)N=N1 [PK150-P, 2-(3-(But-3-inyl)-3H-diazirin-3-yl)ethyl4-(3-(4-Chloro-3trifluoromethylphenyl)ureido) benzoate]
[3]
  MIC: 1.0 µM (≈ 0.479 µg/mL)
